The record followed here is patent US5593970A, “Heterocyclic anthracycline analogs” (priority 1994, dated 1997).

Counter-ions that a name gives are not always drawn. Like-named read-outs stand apart in the source and are kept apart here.

What all share (experiment): Microculture tetrazolium assay
Common to all, as to format: cell-based

One test concerns HT29. As to conditions: Homo sapiens, HT-29, HT29.
For another test, the system named is SKVLB. As to conditions: for VLB/OV3: IC50 ratio SKVLB/SKOV3; for IC50: SKVLB, read-out: IC50.
The test system of another test is T47D. As to conditions: Homo sapiens, read-out: IC50.
The subject of a further test is SKOV3. As to conditions: Homo sapiens, SK-OV-3, SKOV3; read-out: IC50.
For a further test, the system named is LOX. As to conditions: read-out: IC50.

Consider `C[C@@H]1O[C@@H](O[C@H]2O[C@H](COc3ccccc3)Cc3c(O)c4c(c(O)c32)C(=O)c2ccccc2C4=O)C[C@H](N)[C@@H]1O` (mixture of isomers) [BCH-2058, (1'S,1R,3S) and (1'S,1S,3R)-5,12-dihydroxy-3-phenyloxymethyl-1-(2',3',6'-trideoxy-3'-amino-L-lyxohexopyranose)-1,2,3,4-tetrahydro-(2-oxygen)-naphthacene-6,11-dione-hydrochloride], for which the IC50 (as a rule, the midpoint of a concentration-inhibition curve) with HT29 (read-out: IC50) was found to be 0.163 µM; with SKVLB, 0.407 µM; in the test with T47D, 0.49 µM; with SKOV3 it was 0.392 µM; in the test on LOX it was 0.226 µM. Further, the VLB/OV3 in the test on SKVLB worked out at 1.04.
Turning to `C[C@@H]1O[C@@H](O[C@@H]2O[C@@H](COc3ccccc3)Cc3c(O)c4c(c(O)c32)C(=O)c2ccccc2C4=O)C[C@H](N)[C@@H]1O` (mixture of isomers) [BCH-2059, (1'S,1R,3S) and (1'S,1S,3R)-5,12-dihydroxy-3-phenyloxymethyl-1-(2',3',6'-trideoxy-3'-amino-L-lyxohexopyranose)-1,2,3,4-tetrahydro-(2-oxygen)-naphthacene-6,11-dione-hydrochloride], the IC50 in the test with HT29 (read-out: IC50) turned out to be 0.156 µM; in the test on SKVLB, 0.306 µM; with T47D, 0.442 µM; in the test on SKOV3 it was 0.247 µM; in the test on LOX it was 0.209 µM. The VLB/OV3 in the test on SKVLB came out at 1.24.
Consider `CC[C@@H]1CO[C@@H](O[C@H]2C[C@H](NC(=O)C(F)(F)F)[C@H](O)[C@H](C)O2)C2=C1C(=O)c1c(cc3ccccc3c1O)C2=O` (mixture of isomers) [BCH-2084, (1'S, 1S,4S) and (1'S,1R,4R)-5,12-dioxo-4-ethyl-6-hydroxy-1-(2',3',6'-trideoxy-3'-trifluoroacetamido-L-lyxohexopyranose)-3,4,5,12-tetrahydroanthraceno-[2,3-c]-pyran], for which the IC50 came to 5.8 µM in the test on HT29 (read-out: IC50); 12 µM in the test with SKVLB; 5.6 µM in the test on T47D; 4.2 µM in the test with SKOV3; 5.2 µM in the test with LOX.
Take `CC[C@H]1CO[C@H](O[C@H]2C[C@H](N)[C@H](O)[C@H](C)O2)c2c(O)c3c(c(O)c21)C(=O)c1ccccc1C3=O` (mixture of isomers) [BCH-2085, (1'S,1S,4S) and (1'S,1R,4R)-5,12-dihydroxy-4-ethyl-1-(2',3',6'-trideoxy-3'-amino-L-lyxohexopyranose)-1,2,3,4-tetrahydro-(2-oxygen)-naphthacene-6,11-dione-hydrochloride]: the IC50 in the test with HT29 (read-out: IC50) is 0.8 µM; in the test on SKVLB, 3.4 µM; in the test on T47D it was 1.6 µM; in the test on SKOV3 it was 1.1 µM; with LOX, 0.58 µM.
As for `CC(=O)CC1CC2=C(C(=O)c3cc4ccccc4c(O)c3C2=O)C(O[C@H]2C[C@H](NC(=O)C(F)(F)F)[C@H](O)[C@H](C)O2)O1` (mixture of isomers) [BCH-2097, (1'S,1R,3S) and (1'S,1S,3R)(6-hydroxy-1-(2',3',6'-trideoxy-3'-trifluoroacetamido-4'-hydroxy-L-lyxohexopyranose)-5,12-dioxo-3,4,5,12-tetrahydroanthraceno[2,3-c]pyran-3-yl)propanone], the IC50 with HT29 (read-out: IC50) worked out at 2.64 µM; in the test on SKVLB, 5.36 µM; with T47D, 4.45 µM; in the test with SKOV3 it was 6.06 µM; with LOX it was 2.51 µM. In addition, the VLB/OV3 in the test with SKVLB was 0.88.
Turning to `CC(C)C(=O)C1Cc2c(O)c3c(c(O)c2C(O[C@H]2C[C@H](N)[C@H](O)[C@H](C)O2)O1)C(=O)c1ccccc1C3=O` (mixture of isomers) [BCH-2120, (1'S, 1R,3S) and (1'S, 1S ,3R)-isopropyl-[5,12-dihydroxy-6,11-dioxo-1-(2',3',6'-trideoxy-3'-amino-L-lyxohexopyranose)-3,4,6,11-tetrahydroanthraceno-[2,3-c]-pyran-3-yl]-ketone hydrochloride], the IC50 with HT29 (read-out: IC50) was found to be 0.168 µM; with SKVLB it was 0.398 µM; in the test with T47D it was 0.314 µM; with SKOV3 it was 0.432 µM; in the test with LOX, 0.143 µM. Besides, the VLB/OV3 in the test with SKVLB was 0.92.
For `C[C@@H]1O[C@@H](OC2OC(CC(=O)C3CC3)CC3=C2C(=O)c2cc4ccccc4c(O)c2C3=O)C[C@H](NC(=O)C(F)(F)F)C1O` (mixture of isomers) [BCH-2133, (1'S,1S,3R) and (1'S,1R,3S)-cyclopropyl-(6-hydroxy-1-((2',3',6'-trideoxy-3'-trifluoroacetamido-4'-hydroxy-L-arabino-hexopyranose)-5,10-dioxo-3,4,5,12-tetrahydronaphto-[2,3-c]pyran-3-yl)methylene)], the IC50 in the test with HT29 (read-out: IC50) amounted to 3.68 µM; in the test on SKVLB, 1.6 µM; in the test on T47D, 3.62 µM; in the test on SKOV3, 7.02 µM; in the test with LOX it was 2.49 µM. Also, the VLB/OV3 in the test on SKVLB was found to be 0.23.
In the case of `COC(=O)[C@@H]1CC2=C(C(=O)c3c(cc4ccccc4c3O)C2=O)[C@@H](O)O1` (relative stereo) [BCH-703, Methyl(1,11-dihydroxy-5,12-dioxo-3,4,5,12-tetrahydroanthraceno[2,3-c]pyran-3-yl)formate], the IC50 in the test with HT29 (read-out: IC50) worked out at 7.38 µM; in the test with SKVLB it was 18.5 µM; with T47D, 16.4 µM; in the test on SKOV3, 24.8 µM; in the test with LOX, 12.8 µM. The VLB/OV3 with SKVLB is listed as 0.75.
For the compound `CC(=O)[C@@H]1CC2=C(C(=O)c3c(cc4ccccc4c3O)C2=O)[C@@H](O)O1` (relative stereo) [BCH-722], the IC50 in the test on HT29 (read-out: IC50) worked out at 7.11 µM; with SKVLB, 83 µM; in the test with T47D, 12 µM; in the test on SKOV3, 19.2 µM; with LOX it was 43.7 µM. Besides, in the test with SKVLB, the VLB/OV3 is reported as 4.32.
Regarding `CO[C@H]1S[C@H](CO)CC2=C1C(=O)c1cc3ccccc3c(O)c1C2=O` (relative stereo) [BCH-725], the IC50 came to 2.49 µM with HT29 (read-out: IC50); 3.99 µM in the test on SKVLB; 4.57 µM in the test on T47D; 3.46 µM in the test on SKOV3; 1.93 µM with LOX. Besides, the VLB/OV3 in the test with SKVLB came to 1.15.
In the case of `CC[C@@H]1CC2=C(C(=O)c3cc4ccccc4c(O)c3C2=O)[C@@H](O)O1` (relative stereo) [BCH-1162, (trans)-1,6-Dihydroxy-3-ethyl-1,2,3,4-tetrahydro-(2-oxygen) naphtacene-5,12-dione], the IC50 in the test on HT29 (read-out: IC50) is 4.17 µM; in the test on SKVLB, 2.7 µM; in the test on T47D it was 2.57 µM; with SKOV3, 1.16 µM; in the test with LOX, > 100 µM. In the test on SKVLB, the VLB/OV3 is on record as 2.33.
Regarding `CO[C@H]1S[C@H](C(C)=O)CC2=C1C(=O)c1cc3ccccc3c(O)c1C2=O` (relative stereo) [BCH-1164, Trans-3-aceto-1-methoxy-6-hydroxy-1,2,3,4,5,12-hexahydro-2-(sulfur)naphthacene-5,12-dione], the IC50 is 6.97 µM in the test on HT29; 9.2 µM with SKVLB; 12.2 µM in the test on T47D; 9.36 µM in the test on SKOV3; > 100 µM in the test with LOX. Moreover, the VLB/OV3 in the test on SKVLB worked out at 0.98.
In the case of `CC[C@@H]1Cc2c(O)c3c(c(O)c2[C@@H](O)O1)C(=O)c1ccccc1C3=O` (relative stereo) [BCH-1174, (trans)-6,11-dioxo-3-ethyl-1,5,12-trihydroxy-3,4,5,12-tetrahydroanthraceno-[2,3-c]-pyran], the IC50 in the test with HT29 (read-out: IC50), in the test with SKVLB, with T47D, in the test with SKOV3 and in the test with LOX was > 100 µM each time.
